Here are results for one compound from US20230338534A1, “METHOD” (AUTOLUS LIMITED, priority 2020, published 2023).

The experiment relates to RQR8+ cells expressing TRBC2 CAR alone. Put plainly: Tacrolimus effect on proliferation of CAR-T cells in 4 day co-culture. The format is cell-based. To be noted: 20 ng/ml; 4 days co-culture with TRBC2+ targets. The method, then: In a similar study, cells transduced to express either TRBC2 CAR alone or TRBC2 CAR in combination with a calcineurin mutant (CnB30) were co-cultured for 4 days with TRBC2+ positive targets in the presence or absence of 20 ng/ml of Tacrolimus. […] This was true for cells expressing TRBC2 CAR alone or co-expressing TRBC2 CAR in combination with the calcineurin mutant.

On to `C=CC[C@@H]1/C=C(\C)C[C@H](C)C[C@H](OC)[C@H]2O[C@@](O)(C(=O)C(=O)N3CCCC[C@H]3C(=O)O[C@H](/C(C)=C/[C@@H]3CC[C@@H](O)[C@H](OC)C3)[C@H](C)[C@@H](O)CC1=O)[C@H](C)C[C@@H]2OC` [Tacrolimus, tacrolimus], for which the “effect on proliferation of cells expressing TRBC2 CAR alone” value is “inhibits proliferation”.
